Measured values: patent US20260002950A1, “Uses of 5-Aminovaleric Acid Betaine and Compositions Related Thereto” (Emory University, priority 2021, published 2026)
“Also recorded” adds a separate entry of the source.

How the values were obtained:
[1] = system: PPAR-response element; test: PPAR-response element-linked luciferase activity; format: cell-based
From the text: An alternative interpretation of VB activity involves an adaptive response termed mitohormesis, a process by which a minor impairment increases gene expression of mitochondrial systems which improve metabolic function of mitochondria. […] With this interpretation, VB-induced lipid accumulation could drive activity of SIRT1, PGC-1a and PPAR-a pathways which control carnitine homeostasis, mitochondrial bioenergetics, and lipid metabolism. […] Thus, VB may function through a mitohormesis response mechanism and in conjunction with diet and aging, contribute to age dependent changes in adiposity.

[2] = Concentrations of VB in tissues and circulation of conventional mice (mass spectrometry); format: in vivo; settings: endogenous
From the text: To identify microbial metabolites that could impact mitochondrial function, the metabolome of liver and liver mitochondria was examined in mice with an intact microbiome (“conventionalized” mice in which germ-free mice were reconstituted with microbiome) compared to liver and liver mitochondria from germ-free mice (FIG. 1A). The top discriminatory metabolite has an accurate mass m/z of 160.1332 by ultra-high-resolution mass spectrometry, corresponding to predicted elemental composition C8H18NO2. This metabolite is found in liver and other tissues, portal and peripheral circulation, and cecum of conventional but not germ-free mice (FIG. 1B). Authentic standard co-elution and MS/MS experiments show the identity of 160.1332 m/z to be delta-valerobetaine (VB) (FIG. 1C). Concurrent analyses of propionylcholine and valine betaine, similar molecules with identical elemental compositions, conclusively excluded these structures. VB was not present in the mouse diet and was not detectable in other samples collected from GF mice. […] Concentrations were 9-26 μM in the portal vein, with higher concentrations in the liver (75-190 μmol/kg wet weight) and lower concentrations in the peripheral plasma (2-10 μM) indicating tissue accumulation.

[3] = system: mouse cardiomyocytes; settings: cited from earlier work
[4] = system: human HepG2 cells; test: Cell content of carnitine in HepG2 cells, VB dose-response; format: cell-based; settings: VB at 10 μM, vs control cells
Procedure: (§1) Dose-response experiments with VB were performed in vitro and in vivo to examine metabolic effects of VB. The mitochondrial carnitine shuttle is the top metabolic pathway associated with VB in human HepG2 cells. […] The carnitine shuttle uses carnitine for transport of long-chain fatty acyl chains into mitochondria for fatty acid β-oxidation. […] The effect of VB on inhibition of palmitate-dependent oxygen consumption rate is confirmed by stable isotope tracer studies of palmitate metabolism, which show VB inhibits formation of ^13C16 palmitoylcarnitine from ^13C16 palmitate and decreases the formation of ^13C2 acetyl-CoA (FIG. 2D). […] Thus, VB inhibits mitochondrial long chain fatty acid metabolism through effects on carnitine and operation of the carnitine shuttle.

[5] = target: T1, γ-butyrobetaine hydroxylase (Homo sapiens, UniProt O75936); settings: cited from earlier work
T1 sequence (O75936 1-387): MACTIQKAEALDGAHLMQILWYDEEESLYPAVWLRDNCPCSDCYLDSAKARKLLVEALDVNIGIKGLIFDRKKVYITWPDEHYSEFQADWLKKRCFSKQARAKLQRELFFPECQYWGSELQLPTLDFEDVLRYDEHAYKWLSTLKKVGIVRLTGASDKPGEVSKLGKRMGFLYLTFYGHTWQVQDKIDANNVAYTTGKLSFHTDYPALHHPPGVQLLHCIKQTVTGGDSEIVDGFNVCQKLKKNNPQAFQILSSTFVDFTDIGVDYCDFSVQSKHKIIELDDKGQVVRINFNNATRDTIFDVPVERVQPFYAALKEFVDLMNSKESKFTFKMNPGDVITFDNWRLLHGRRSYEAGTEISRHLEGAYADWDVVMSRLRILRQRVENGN

[6] = system: conventional mice; test: 8-week VB treatment of conventional mice on Western or control diet: adiposity; format: in vivo
From the text: (n=5 per group, one-tailed t-test).
The relative increases are most pronounced in VAT, where fat mass in VB-treated mice on a Western diet was increased 80% in male mice and 60% in female mice compared to Western diet alone. […] The long-term consequences of VB inhibition of mitochondrial β-oxidation of fatty acids therefore include effects on body composition in mice receiving Western diet, with specific and pronounced effects on visceral adipose tissue mass.
(§2) VB effects in fasting are particularly intriguing as a mechanism causing obesity because decreasing mitochondrial β-oxidation of lipids mobilized from adipose tissue during fasting could cause a long-term increase in fat deposition. Therefore, experiments were performed to determine whether long-term VB treatment could increase weight gain and adiposity in mice. This was tested this in both GF and conventional mice, with or without a high-fat/sugar WD. Backhead et al. report a resistance to diet-induced obesity in germ-free mice. PNSA, 104 (3), 2007. […] Furthermore, VB treatment exacerbated the development of hepatic steatosis in these mice (FIG. 4E). Similarly, VB increased adipose tissue fat mass (VAT, SubQ, BAT) in conventional mice after 8 weeks with the WD. The relative increases were most pronounced in white adipose compartments (VAT, SubQ) where fat mass in VB treated GF and conventional mice on a WD was increased over 80% compared to WD alone.
(§3) Although WD-fed mice gained more weight than control fed mice, no differences in circulating VB were observed between WD or control-diet-fed conventional mice. These effects were not observed in GF or conventional mice fed the control diet.

[7] = system: mice; test: VB treatment of mice for 3 days ± fasting: hepatic lipid accumulation; format: in vivo
Procedure: Mice of each sex were given daily intraperitoneal injection with saline (n=5) or VB at 100 mg/kg (n=5) for 3 days±fasting.
(§4) As observed in cells, the carnitine shuttle is the top metabolic pathway associated with VB-treatment in mice. VB treatment decreases circulating (FIG. 2A), hepatic (FIG. 2B), heart, and brain carnitine. Furthermore, VB treatment alters circulating and systemic acylcarnitine and acyl-CoA profiles. In whole tissue, VB increases hepatic and cardiac palmitoyl-CoA and decreases other short, medium, and long-chain acylcarnitines and CoAs under fasted conditions. In mitochondria, VB decreases the abundance of long-chain fatty acyl-CoAs and carnitines, consistent with a decrease in long-chain fatty acid β oxidation. VB also decreases circulating and hepatic β-hydroxybutyrate, a product of mitochondrial β-fatty acid oxidation.

[8] = system: GF mice; test: 6-week VB treatment of germ-free (GF) mice on Western or control diet; format: in vivo
Procedure: FIG. 4A illustrates experiments on long-term VB treatment in GF mice. Male GF mice were administered PBS or VB in conjunction with a control diet (CD) or WD for 6 weeks with body weight recorded as percentage weight gain (two-way repeat measures ANOVA with multiple comparisons per day.
as §2, §3

[9] = system: mice; settings: cited from earlier work
[10] = system: HepG2 cells; test: Palmitate-dependent mitochondrial O2 consumption rate in HepG2 cells; format: cell-based, human
Procedure: […] Effect of VB is most pronounced in the spare capacity measured after addition of the uncoupler FCCP.
as §1

[11] = system: carnitine shuttle; test: Stable isotope tracer study of palmitate metabolism in cultured cells; format: cell-based
Procedure: as §1

[12] = system: mice; test: VB treatment of mice, daily intraperitoneal injection for 1 week: carnitine and metabolite profiles; format: in vivo
Procedure: Mice of each sex were given daily intraperitoneal injection with saline (n=5), VB at 10 mg/kg (n=3) or VB at 100 mg/kg (n=8) for 1 week. Kruskal-Wallis test with Dunn's multiple comparisons test to identify pairwise differences in GraphPad Prism 6.0.
as §4

C[N+](C)(C)CCCCC(=O)[O-] [VB, 5-(trimethylammonio) pentanoate]
PPAR-response element-linked luciferase activity [1]: dose-dependent increase
Concentration of VB in the cecum [2]: millimolar range
Concentration of VB in the liver [2]: 75-190 μmol/kg wet weight
Concentration of VB in the peripheral plasma [2]: 2 to 10 µM
Concentration of VB in the portal vein [2]: 9 to 26 µM
Concentration of VB in the colon ([2]; relative to cecum): somewhat lower concentrations
β-oxidation of fatty acids [3]: decreases
Cell content of carnitine [4]: decreased to half that of control cells
γ-butyrobetaine hydroxylase activity [5]: inhibits
Weight of brown adipose tissue (BAT) ([6]; 8 weeks): increased by VB in a diet dependent manner after 8-week VB treatment in males but not females; also recorded: increases brown adipose tissue (BAT) but in a less consistent manner
Weight of subcutaneous white adipose tissue (WAT) ([6]; Western diet, 8 weeks): increased by VB in a diet-dependent manner; also recorded: substantial increases
Weight of visceral adipose tissue (VAT) ([6]; Western diet, 8 weeks): increased by VB in a diet dependent manner; also recorded: substantial increases
Increase of fat mass in white adipose compartments (VAT, SubQ) vs WD alone ([6]; conventional mice on WD): over 80%
Adipose tissue fat mass (VAT, SubQ, BAT) ([6]; conventional mice, WD, 8 weeks): increased
Severity of hepatic steatosis ([6]; conventional mice, Western diet, 8 weeks): Trends for increase
Total body mass ([6]; conventional mice, Western diet, after 8 weeks, not p<0.05): Trends for increase
Effects on adiposity, steatosis and body mass on control diet ([6]; conventional mice, control diet): not observed
Increase of visceral adipose tissue (VAT) fat mass vs Western diet alone ([6]; female mice, Western diet, 8 weeks): 60%
Increase of visceral adipose tissue (VAT) fat mass vs Western diet alone ([6]; male mice, Western diet, 8 weeks): 80%
Liver triglycerides (hepatic steatosis) ([7]; male and female mice, VB 100 mg/kg i.p. 3 days, fasted): exacerbates hepatic steatosis; also recorded: increase
Liver lipid deposits, Oil Red O staining ([7]; mice, especially under fasted conditions): increases lipid deposits
Hepatic and cardiac palmitoyl-CoA ([7]; mice, whole tissue, fasted conditions): increases
Carnitine concentrations after parenteral VB dosing ([8]; GF mice): equivalent to conventional mice
Increase of fat mass in white adipose compartments (VAT, SubQ) vs WD alone ([8]; GF mice on WD): over 80%
Adipose tissue fat mass in VAT, SubQ and BAT compartments vs WD alone ([8]; GF mice, WD, six weeks): substantial increases
Weight gain ([8]; GF mice, WD, six weeks): increased weight gain
Development of hepatic steatosis ([8]; GF mice, WD, six weeks, liver H&E scoring): exacerbated
Effects on adiposity, steatosis and body mass on control diet ([8]; GF mice, control diet): not observed
Fatty liver [9]: exacerbates
Palmitate-dependent mitochondrial oxygen respiration (O2 consumption rate) ([10]; HepG2, 12 h without glucose, glutamine and pyruvate (mimicking fasting), VB 10 or 50 μM): inhibited; also recorded: dose-dependent decrease
Basal, ADP-linked O2 consumption rate, spare capacity, non-mitochondrial respiration ([10]; glucose, glutamine and pyruvate present at high concentration in culture media): little decrease
Formation of 13C16 palmitoylcarnitine from 13C16 palmitate ([11]; cultured cells): inhibits
Formation of 13C2 acetyl-CoA from labeled palmitate ([11]; cultured cells, n=3): decreases
Circulating and hepatic β-hydroxybutyrate [12]: decreases
Circulating carnitine ([12]; VB 10 or 100 mg/kg i.p. daily, 1 week): decreases
Brain carnitine ([12]; VB treatment): decreases
Heart carnitine ([12]; VB treatment): decreases
Hepatic carnitine ([12]; VB treatment): decreases
Triacylglycerol and diacylglycerol species in liver, heart and brain ([12]; lipid profiling): increases
Abundance of long-chain fatty acyl-CoAs and carnitines in mitochondria ([12]; mitochondria): decreases

C[N+](C)(C)CC(O)CC(=O)[O-] (centres unmarked) [carnitine, reference compound]
Rescue of VB effect on cellular carnitine and palmitoylcarnitine formation ([11]; addition of carnitine to VB-treated cells): restores cellular carnitine and formation of palmitoylcarnitine
